From patent publication US20240376363A1, “FLUORINE SUBSTITUTED CYCLOBUTENE COMPOUNDS, AND COMPOSITIONS, METHODS AND USES INCLUDING SAME” (HONEYWELL INTERNATIONAL INC., priority 2021, published 2024)

Experiments:
[1] = short term (4 hour) toxicity exposure; type: in vivo; details: 4 hour exposure
Source text: LC50 is a measure of the acute toxicity of a compound. The acute inhalation toxicity of a compound can be assessed using the method described in the OECD Guideline for Testing of Chemicals No. 403 “Acute Inhalation Toxicity” (2009), Method B.2. (Inhalation) of Commission Regulation (EC) No. 440/2008.

[2] = miscibility with mineral oil; type: physicochemical; details: for Miscibility: with mineral oil, concentration up to which miscible
Source text: In addition, the compounds of the present invention have good miscibility with lubricants, including lubricants used in vapour compression refrigeration systems. For example, the Compounds 1 and 3 are fully miscible with e mineral oil at concentrations up to about 66.7 weight percent as indicated in the following table.

flash point (ASTM D3828) = type: physicochemical
Protocol: Flash Point refers the lowest temperature at which vapors of the liquid will […] as determined in accordance with ASTM D3828.
Non-flammable in the context of a thermal management composition or fluid means compounds or compositions which are determined to be non-flammable. The flash point of a thermal management composition or fluid refers the lowest temperature at which vapors of the composition will keep burning after the ignition source is removed as determined in accordance with ASTM D3828.

[3] = long term (28 day) toxicity exposure; type: in vivo; details: 28 day exposure
heat of vaporization = type: physicochemical

SMILES	Normal Boiling Point (normal boiling point)	Heat of Vaporization (heat of vaporization)	other results
FC1(F)C(Cl)=C(Cl)C1(F)F [Compound 3, 1,2-dichloro-3,3,4,4-tetrafluorocyclobut-1-ene]	58 °C		short term (4 hour) toxicity exposure [1]: failed; Miscibility [2]: Miscible up to 66.7%; Flash Point (flash point (ASTM D3828)): No flash point
FC1=C(Cl)CC1(F)F [Compound 1, 1-chloro-2,3,3-trifluorocyclo-1-ene]	52 °C		long term (28 day) toxicity exposure [3]: failed; Miscibility [2]: Miscible up to 66.7%; Flash Point (flash point (ASTM D3828)): No flash point
FC1(F)C(Oc2ccccc2)=C(Oc2ccccc2)C1(F)F [Compound 17, ((perfluorocyclobut-1-ene-1,2-diyl)bis(oxy))dibenzene]		17.9 kcal/mol	
FC(F)(F)COC1=C(Cl)C(F)(F)C1(F)F [Compound 18, 1-chloro-3,3,4,4-tetrafluoro-2-(2,2,2-trifluoroethoxy) cyclobut-1-ene]		9.08 kcal/mol	
FC(F)(F)OC1=C(OC(F)(F)F)C(F)(F)C1(F)F [Compound 13]	144 °C	7.65 kcal/mol	
COC1=C(OC)C(F)(F)C1(F)F [Compound 11, 3,3,4,4-tetrafluoro-1,2-dimethoxycyclobut-1-ene]	127 °C		
FC(F)(F)C(OC1=C(OC(C(F)(F)F)C(F)(F)F)C(F)(F)C1(F)F)C(F)(F)F [Compound 15, 3,3,4,4-pentafluoro-1,2-bis((1,1,1,3,3,3-hexafluoropropan-2-yl)oxy) cyclobut-1-ene]		8.13 kcal/mol	
COC1=C(Cl)C(F)(F)C1(F)F [Compound 4]	110 °C		
FC1=CCC1(F)F [Compound 2, 1,4,4-trifluorocyclobut-1-ene]	32 °C		Miscibility with mineral oil ([2]; ratio compound to mineral oil): Not miscible; Flash Point (flash point (ASTM D3828)): Flash point observed
FC1=C(Oc2ccccc2)C(F)(F)C1(F)F [Compound 16, ((perfluorocyclobut-1-en-1-yl)oxy)benzene]		10 kcal/mol	
FC1=C(OC(C(F)(F)F)C(F)(F)F)C(F)(F)C1(F)F [Compound 14, 1,3,3,4,4-pentafluoro-2-((1,1,1,3,3,3-hexafluoropropan-2-yl)oxy)cyclobut-1-ene]		7.41 kcal/mol	
